Assays:
[1] = molecular target: T1, CFTR (Mus musculus, UniProt P26361); experiment: Open-circuit ocular surface potential difference (PD) in CD-1 mice; format: in vivo; conditions: 20 μM CFTRinh-172
T1 construct: from tissue; host or cells: ocular surface of anesthetized CD-1 mice (in vivo)

[2] = system: CD-1 mice; experiment: Tear volume by phenol red thread tear test in normal CD-1 mice; format: in vivo, mouse; conditions: isorhamnetin 30 µM with CFTRinh-172 20 µM
Procedure: Tear volume was measured using phenol red threads (Zone-Quick, Oasis Medical, Glendora, CA, USA) by placing them in the lateral canthi of normal CD-1 or dry eye model-treated BL6 mice for 10 s using forceps. Tear volume was measured using a Vernier caliper as the length of thread wetting under a microscope. For normal CD-1 mice, serial measurements were done to evaluate compound pharmacodynamics compared to the vehicle after topical application of a single, 2.5-μL drop of compound formulations containing 20 μM forskolin, 30 μM isorhamnetin, or 20 μM CFTRinh-172 in PBS with 0.1% DMSO.

[3] = molecular target: WT-CFTR (Homo sapiens, UniProt P13569); experiment: Whole-cell patch clamp in CHO-K1 cells expressing WT-CFTR; format: cell-based; design: expressed in transfected cells; host or cells: CHO-K1; conditions: 10 μM CFTRinh-172
Chain of WT-CFTR (P13569 whole entry): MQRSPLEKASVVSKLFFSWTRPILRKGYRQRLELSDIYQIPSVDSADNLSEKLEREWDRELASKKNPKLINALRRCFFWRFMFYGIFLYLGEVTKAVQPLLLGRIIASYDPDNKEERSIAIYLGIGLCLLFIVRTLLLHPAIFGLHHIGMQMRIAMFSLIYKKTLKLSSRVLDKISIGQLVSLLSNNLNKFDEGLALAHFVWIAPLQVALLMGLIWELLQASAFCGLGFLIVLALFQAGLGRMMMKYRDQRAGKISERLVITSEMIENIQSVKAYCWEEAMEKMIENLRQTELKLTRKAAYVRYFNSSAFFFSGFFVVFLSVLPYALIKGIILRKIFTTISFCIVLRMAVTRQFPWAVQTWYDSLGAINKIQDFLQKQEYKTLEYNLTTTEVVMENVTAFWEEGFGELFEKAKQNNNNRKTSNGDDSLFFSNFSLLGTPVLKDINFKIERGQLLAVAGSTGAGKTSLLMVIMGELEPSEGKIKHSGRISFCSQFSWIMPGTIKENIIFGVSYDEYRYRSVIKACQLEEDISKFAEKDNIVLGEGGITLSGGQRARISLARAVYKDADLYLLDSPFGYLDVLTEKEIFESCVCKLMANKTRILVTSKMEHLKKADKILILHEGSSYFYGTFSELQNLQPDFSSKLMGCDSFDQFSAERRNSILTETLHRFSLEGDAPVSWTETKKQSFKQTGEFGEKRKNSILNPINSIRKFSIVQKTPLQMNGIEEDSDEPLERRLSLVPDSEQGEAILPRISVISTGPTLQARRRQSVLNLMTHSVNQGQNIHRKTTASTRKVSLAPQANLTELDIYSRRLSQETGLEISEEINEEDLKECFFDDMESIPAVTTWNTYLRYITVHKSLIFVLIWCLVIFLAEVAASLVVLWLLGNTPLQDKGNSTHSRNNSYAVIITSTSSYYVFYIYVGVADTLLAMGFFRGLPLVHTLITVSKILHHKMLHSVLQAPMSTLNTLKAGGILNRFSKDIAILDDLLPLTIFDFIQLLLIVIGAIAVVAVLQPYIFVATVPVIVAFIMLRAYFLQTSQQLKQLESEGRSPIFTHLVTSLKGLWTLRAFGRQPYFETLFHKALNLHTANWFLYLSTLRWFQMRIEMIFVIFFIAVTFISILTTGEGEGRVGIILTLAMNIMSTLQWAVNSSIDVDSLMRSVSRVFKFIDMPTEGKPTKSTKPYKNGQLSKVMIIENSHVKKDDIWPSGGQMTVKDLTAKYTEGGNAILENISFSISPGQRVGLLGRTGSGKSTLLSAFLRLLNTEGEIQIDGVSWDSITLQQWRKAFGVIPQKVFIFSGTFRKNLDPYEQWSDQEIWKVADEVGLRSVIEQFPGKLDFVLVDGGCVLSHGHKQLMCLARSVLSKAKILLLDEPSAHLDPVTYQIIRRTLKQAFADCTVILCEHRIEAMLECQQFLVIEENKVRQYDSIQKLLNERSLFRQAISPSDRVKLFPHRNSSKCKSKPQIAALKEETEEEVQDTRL
Procedure: Whole-cell, patch clamp recordings were performed on CFTR-expressing CHO cells. The bath solution contained (in mM) 140 NMDG-Cl, 1 CaCl2, 1 MgCl2, 10 glucose, and 10 HEPES (pH 7.4). The pipette solution contained (in mM) 130 CsCl, 0.5 EGTA, 1 MgCl2, 1 Tris-ATP, and 10 HEPES (pH 7.2). […] Seal resistances were between 3 and 10 GΩ. After establishing the whole-cell configuration, CFTR was activated by forskolin and/or isorhamnetin. […] Recordings were made at room temperature using an Axopatch-200B (Axon Instruments, San Jose, CA, USA). Currents were digitized with a Digidata 1440A converter (Axon Instruments), filtered at 5 kHz, and sampled at 1 kHz.

[4] = system: corneal epithelial (CorE) cells; experiment: MTS cell viability assay in CorE cells; format: cell-based, human; conditions: 48 h; isorhamnetin 30 μM, Triton X-100 0.01%
Procedure: (§1) Immortalized human CorE [47] and immortalized human ConjE (Innoprot, Bizkaia, Spain) cells were plated on 96-well microplates. After 24 h incubation, cells were treated with 30 μM isorhamnetin or 0.01% Triton X-100 and then they were incubated for two days. An equal amount of DMSO was added to the control. The culture medium and the compounds were changed every 12 h. To assess cell proliferation, after 48 h of incubation with the compound, the cells were reincubated with MTS for 1 h. The soluble formazan produced by cellular reduction of MTS was quantified by measuring the absorbance at 490 nm with Infinite M200 (Tecan, Grödig, Austria) microplate reader. MTS assay was done using CellTiter 96 AQueous One Solution Cell Proliferation Assay kit (Promega, Madison, WI, USA).

[5] = system: conjunctival epithelial (ConjE) cells; experiment: MTS cell viability assay in ConjE cells; format: cell-based, human; conditions: 48 h; isorhamnetin 30 μM, Triton X-100 0.01%
Procedure: as §1

T1 sequence (P26361 whole entry): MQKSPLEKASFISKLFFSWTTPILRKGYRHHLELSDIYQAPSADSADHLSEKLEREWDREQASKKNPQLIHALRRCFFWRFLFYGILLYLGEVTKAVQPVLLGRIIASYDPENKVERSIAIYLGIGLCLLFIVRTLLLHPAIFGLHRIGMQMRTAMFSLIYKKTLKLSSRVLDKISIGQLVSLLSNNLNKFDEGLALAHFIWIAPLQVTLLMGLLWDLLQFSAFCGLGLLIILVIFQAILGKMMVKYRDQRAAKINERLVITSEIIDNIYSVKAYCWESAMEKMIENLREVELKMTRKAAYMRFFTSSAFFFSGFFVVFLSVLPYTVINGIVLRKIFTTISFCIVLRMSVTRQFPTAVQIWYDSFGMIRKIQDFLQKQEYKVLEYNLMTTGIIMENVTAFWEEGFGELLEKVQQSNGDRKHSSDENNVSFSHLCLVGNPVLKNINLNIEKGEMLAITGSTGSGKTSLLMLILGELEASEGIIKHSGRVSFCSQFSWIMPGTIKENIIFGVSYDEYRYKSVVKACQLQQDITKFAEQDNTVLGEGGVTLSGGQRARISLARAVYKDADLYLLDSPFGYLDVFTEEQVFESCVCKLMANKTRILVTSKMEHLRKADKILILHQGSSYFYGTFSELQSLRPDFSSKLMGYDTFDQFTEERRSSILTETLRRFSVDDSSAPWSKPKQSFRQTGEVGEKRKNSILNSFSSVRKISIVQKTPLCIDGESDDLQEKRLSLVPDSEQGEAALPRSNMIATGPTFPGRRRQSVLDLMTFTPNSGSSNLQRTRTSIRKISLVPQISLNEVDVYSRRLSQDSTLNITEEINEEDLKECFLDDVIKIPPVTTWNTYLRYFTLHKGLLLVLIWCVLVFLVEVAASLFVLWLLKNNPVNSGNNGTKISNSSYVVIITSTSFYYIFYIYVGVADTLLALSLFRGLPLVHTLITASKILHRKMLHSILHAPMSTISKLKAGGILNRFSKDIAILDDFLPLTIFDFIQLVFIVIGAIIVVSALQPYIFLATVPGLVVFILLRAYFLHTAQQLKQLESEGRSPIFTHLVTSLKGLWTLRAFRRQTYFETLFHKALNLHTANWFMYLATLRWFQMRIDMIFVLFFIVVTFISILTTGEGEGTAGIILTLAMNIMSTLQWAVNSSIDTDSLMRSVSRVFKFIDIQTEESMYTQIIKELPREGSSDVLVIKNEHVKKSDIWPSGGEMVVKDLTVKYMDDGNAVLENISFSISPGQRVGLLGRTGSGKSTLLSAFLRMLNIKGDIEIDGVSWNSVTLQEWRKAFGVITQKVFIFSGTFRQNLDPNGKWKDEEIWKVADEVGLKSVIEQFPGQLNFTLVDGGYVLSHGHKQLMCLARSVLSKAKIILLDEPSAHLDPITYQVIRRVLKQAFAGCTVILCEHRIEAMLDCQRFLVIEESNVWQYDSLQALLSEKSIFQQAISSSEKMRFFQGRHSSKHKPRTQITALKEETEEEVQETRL

Row | Compound | isorhamnetin-induced hyperpolarization of ocular PD [1] | isorhamnetin-increased tear volume [2] | block of isorhamnetin-induced CFTR Cl- currents (whole-cell) [3] | cell viability (MTS), CorE cells [4] | cell viability (MTS), ConjE cells [5]
1 | O=C(O)c1ccc(/C=C2\SC(=S)N(c3cccc(C(F)(F)F)c3)C2=O)cc1 [CFTRinh-172, reference compound] | inhibited | completely suppressed | almost completely blocked | – | –
2 | Triton X-100 [reference compound] | – | – | – | markedly decreased cell viability | markedly decreased cell viability

Source: publication PMC8070004, “Isorhamnetin Ameliorates Dry Eye Disease via CFTR Activation in Mice” (International Journal of Molecular Sciences, 2021)
